According to US20260070945A1, “MACROCYCLIC IMMUNOMODULATORS” (Bristol-Myers Squibb Company, priority 2022, published 2026):
*1 amine or outer side, *2 acyl side, *3 side chain or, on linkers, in order; H or OH if unused. Where a SMILES comes first, the peptide text is derived from it. Bridges are numbered along the chain shown (N, C = ends). [ ]: non-standard residue; d: D form. The star is where a group is joined. ξ: configuration not given here. Phe(3-CF3) = N[C@@H](Cc1cccc(C(F)(F)F)c1)C(=O)O; Phe(4-COOH) = N[C@@H](Cc1ccc(C(=O)O)cc1)C(=O)O; d(γGlu) = O=C(O)[C@@H](CCC(=O)[*:2])N[*:1]; Bip = N[C@@H](Cc1ccc(-c2ccccc2)cc1)C(=O)O; NH(CH2)14COOH = O=C(O)CCCCCCCCCCCCCCN*; Phe(3-Me) = Cc1cccc(C[C@H](N)C(=O)O)c1; γGlu = O=C(O)[C@H](CCC(=O)[*:2])N[*:1]; NH(CH2)12COOH = O=C(O)CCCCCCCCCCCCN*; Val(3-OH) = CC(C)(O)[C@H](N)C(=O)O; Cha = N[C@@H](CC1CCCCC1)C(=O)O; Thr(3ξ) = CC(O)[C@H](N)C(=O)O; 12Ado = NCCCCCCCCCCCC(=O)O; Carboxymethyl = O=C(O)C*; NMeA = CN[C@@H](C)C(=O)O; Nle = CCCC[C@H](N)C(=O)O; Dab = NCC[C@H](N)C(=O)O; AEEA = NCCOCCOCC(=O)O

These compounds were tested against T1, PD-1/PD-L1 interaction (PE-labeled human PD-L1-Ig binding to Jurkat cell line over-expressing human PD-1) (Homo sapiens, UniProt Q15116) (assay: Jurkat-PD-1 Cell Binding High-Content Screening Assay (CBA)). Conditions: PE-labeled PD-L1-Ig 20 nM final, Jurkat-hPD-1 cells; read-out: Jurkat HPD1 PDL1 IC50.
T1 construct: expressed in transfected cells; host or cells: Jurkat
Summary of the method: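 Cells 8×10^3/well, DMEM + 10% FCS; cpd 2 h, 37 °C; PE–PD-L1-Ig 20 nM final, 1 h; PFA fix + Hoechst 33342, 3× dPBS wash; high-content imager.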

T1 sequence (Q15116 25-288): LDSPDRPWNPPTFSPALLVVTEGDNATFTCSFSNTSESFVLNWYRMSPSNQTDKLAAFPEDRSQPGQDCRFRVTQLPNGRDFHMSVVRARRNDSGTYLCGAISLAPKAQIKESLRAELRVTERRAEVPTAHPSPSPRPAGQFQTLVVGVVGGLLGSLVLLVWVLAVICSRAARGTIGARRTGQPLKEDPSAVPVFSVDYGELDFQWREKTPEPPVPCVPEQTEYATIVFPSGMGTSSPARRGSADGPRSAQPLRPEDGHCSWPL

Row | IC50 [nM] | SMILES
1 | 584 | CC(=O)NCCCC[C@@H]1NC(=O)[C@H](C(C)(C)O)NC(=O)[C@H](CC2CCCCC2)NC(=O)[C@H](CCN)NC(=O)[C@@H](CC(C)C)NC(=O)[C@H](C)N(C)C(=O)[C@H](CCC(N)=O)NC(=O)[C@H](Cc2ccc(-c3ccccc3)cc2)NC(=O)[C@H](Cc2ccc(C(=O)O)cc2)NC(=O)[C@H](Cc2cccc(C(F)(F)F)c2)NC(=O)[C@H](CC(=O)O)NC(=O)[C@H](Cc2ccc(OCC(=O)O)cc2)NC(=O)[C@H](Cc2ccc(OCC(=O)O)cc2)NC(=O)CSC[C@@H](C(=O)N[C@@H](CCN)C(=O)NCCOCCOCC(=O)N[C@H](CCC(=O)N[C@H](CCC(=O)NCCOCCOCC(=O)NCCCCCCCCCCCCCCC(=O)O)C(=O)O)C(=O)O)NC1=O [Example 2655] ({CH2CO}-Y(Carboxymethyl)Y(Carboxymethyl)D[Phe(3-CF3)][Phe(4-COOH)][Bip]Q[NMeA][dL][Dab][Cha][Val(3-OH)]K(Ac)C[Dab][AEEA][d(γGlu)][d(γGlu)][AEEA]-{NH(CH2)14COOH}; thioether N-14)
2 | 85.6 | Cc1cccc(C[C@@H]2NC(=O)[C@H](CC(=O)O)NC(=O)[C@H](Cc3ccc(OCC(=O)O)cc3)NC(=O)[C@H](C(C)O)NC(=O)CSC[C@@H](C(=O)N[C@@H](CCN)C(=O)NCCOCCOCC(=O)N[C@@H](CCC(=O)NCCOCCOCC(=O)NCCCCCCCCCCCCC(=O)O)C(=O)O)NC(=O)[C@H](CCC(=O)O)NC(=O)[C@H](C(C)C)NC(=O)[C@H](CC3CCCCC3)NC(=O)[C@H](CCN)NC(=O)[C@@H](CC(C)C)NC(=O)[C@H](C)N(C)C(=O)[C@H](Cc3ccc(OCC(=O)O)cc3)NC(=O)[C@H](Cc3ccc(-c4ccccc4)cc3)NC(=O)[C@H](Cc3ccc(OCC(=O)O)cc3)NC2=O)c1 (stereo partly drawn) [Example 2656] ({CH2CO}-[Thr(3ξ)]Y(Carboxymethyl)D[Phe(3-Me)]Y(Carboxymethyl)[Bip]Y(Carboxymethyl)[NMeA][dL][Dab][Cha]VEC[Dab][AEEA][γGlu][AEEA]-{NH(CH2)12COOH}; thioether N-14)
3 | 88.3 | CCCC[C@@H]1NC(=O)CSC[C@@H](C(=O)N[C@@H](CCN)C(=O)NCCOCCOCC(=O)N[C@@H](CCC(=O)NCCOCCOCC(=O)NCCCCCCCCCCCCC(=O)O)C(=O)O)NC(=O)[C@H](CCC(=O)O)NC(=O)[C@H](C(C)C)NC(=O)[C@H](CC2CCCCC2)NC(=O)[C@H](CCN)NC(=O)[C@@H](CC(C)C)NC(=O)[C@H](C)N(C)C(=O)[C@H](Cc2ccc(OCC(=O)O)cc2)NC(=O)[C@H](Cc2ccc(-c3ccccc3)cc2)NC(=O)[C@H](Cc2ccc(OCC(=O)O)cc2)NC(=O)[C@H](Cc2cccc(C)c2)NC(=O)[C@H](CC(=O)O)NC(=O)[C@H](Cc2ccc(OCC(=O)O)cc2)NC1=O [Example 2657] ({CH2CO}-[Nle]Y(Carboxymethyl)D[Phe(3-Me)]Y(Carboxymethyl)[Bip]Y(Carboxymethyl)[NMeA][dL][Dab][Cha]VEC[Dab][AEEA][γGlu][AEEA]-{NH(CH2)12COOH}; thioether N-14)
4 | 23.6 | CC(=O)NCCCC[C@@H]1NC(=O)[C@H](C(C)(C)O)NC(=O)[C@H](CC2CCCCC2)NC(=O)[C@H](CCN)NC(=O)[C@@H](CC(C)C)NC(=O)[C@H](C)N(C)C(=O)[C@H](Cc2ccc(OCC(=O)O)cc2)NC(=O)[C@H](Cc2ccc(-c3ccccc3)cc2)NC(=O)[C@H](Cc2ccc(OCC(=O)O)cc2)NC(=O)[C@H](Cc2cccc(C)c2)NC(=O)[C@H](CC(=O)O)NC(=O)[C@H](Cc2ccc(OCC(=O)O)cc2)NC(=O)[C@H](C(C)O)NC(=O)CSC[C@@H](C(=O)N[C@@H](CCN)C(=O)NCCOCCOCC(=O)N[C@@H](CCC(=O)NCCCCCCCCCCCCC(=O)O)C(=O)O)NC1=O (stereo partly drawn) [Example 2658] ({CH2CO}-[Thr(3ξ)]Y(Carboxymethyl)D[Phe(3-Me)]Y(Carboxymethyl)[Bip]Y(Carboxymethyl)[NMeA][dL][Dab][Cha][Val(3-OH)]K(Ac)C[Dab][AEEA]E(NH(CH2)12COOH)-OH; thioether N-14)
5 | 2.3 | Cc1cccc(C[C@@H]2NC(=O)[C@H](CC(=O)O)NC(=O)[C@H](Cc3ccc(OCC(=O)O)cc3)NC(=O)[C@H]([C@@H](C)O)NC(=O)CSC[C@@H](C(=O)N[C@@H](CCN)C(=O)NCCOCCOCC(=O)NCCCCCCCCCCCC(=O)O)NC(=O)CNC(=O)[C@H](C(C)C)NC(=O)[C@H](CC3CCCCC3)NC(=O)[C@H](CCN)NC(=O)[C@@H](CC(C)C)NC(=O)[C@H](C)N(C)C(=O)[C@H](Cc3ccc(OCC(=O)O)cc3)NC(=O)[C@H](Cc3ccc(-c4ccccc4)cc3)NC(=O)[C@H](Cc3ccc(OCC(=O)O)cc3)NC2=O)c1 [Example 2664] ({CH2CO}-TY(Carboxymethyl)D[Phe(3-Me)]Y(Carboxymethyl)[Bip]Y(Carboxymethyl)[NMeA][dL][Dab][Cha]VGC[Dab][AEEA][12Ado]-OH; thioether N-14)
6 | 1.2 | Cc1cccc(C[C@@H]2NC(=O)[C@H](CC(=O)O)NC(=O)[C@H](Cc3ccc(OCC(=O)O)cc3)NC(=O)[C@H]([C@@H](C)O)NC(=O)CSC[C@@H](C(=O)N[C@@H](CCN)C(=O)NCCOCCOCC(=O)NCCCCCCCCCCCC(=O)O)NC(=O)[C@H](CCC(=O)O)NC(=O)[C@H](C(C)C)NC(=O)[C@H](CC3CCCCC3)NC(=O)[C@H](CCN)NC(=O)[C@@H](CC(C)C)NC(=O)[C@H](C)N(C)C(=O)[C@H](Cc3ccc(O)cc3)NC(=O)[C@H](Cc3ccc(-c4ccccc4)cc3)NC(=O)[C@H](Cc3ccc(OCC(=O)O)cc3)NC2=O)c1 [Example 2665] ({CH2CO}-TY(Carboxymethyl)D[Phe(3-Me)]Y(Carboxymethyl)[Bip]Y[NMeA][dL][Dab][Cha]VEC[Dab][AEEA][12Ado]-OH; thioether N-14)
7 | 0.7 | Cc1cccc(C[C@@H]2NC(=O)[C@H](CC(=O)O)NC(=O)[C@H](Cc3ccc(OCC(=O)O)cc3)NC(=O)[C@H]([C@@H](C)O)NC(=O)CSC[C@@H](C(=O)N[C@@H](CCN)C(=O)NCCOCCOCC(=O)NCCCCCCCCCCCC(=O)O)NC(=O)[C@H](CCC(=O)O)NC(=O)[C@H](C(C)C)NC(=O)[C@H](CC3CCCCC3)NC(=O)[C@H](CCN)NC(=O)[C@@H](CC(C)C)NC(=O)[C@H](C)N(C)C(=O)[C@H](Cc3ccc(OCC(=O)O)cc3)NC(=O)[C@H](Cc3ccc(-c4ccccc4)cc3)NC(=O)[C@H](Cc3ccc(O)cc3)NC2=O)c1 [Example 2666] ({CH2CO}-TY(Carboxymethyl)D[Phe(3-Me)]Y[Bip]Y(Carboxymethyl)[NMeA][dL][Dab][Cha]VEC[Dab][AEEA][12Ado]-OH; thioether N-14)
8 | 0.3 | Cc1cccc(C[C@@H]2NC(=O)[C@H](CC(=O)O)NC(=O)[C@H](Cc3ccc(O)cc3)NC(=O)[C@H]([C@@H](C)O)NC(=O)CSC[C@@H](C(=O)N[C@@H](CCN)C(=O)NCCOCCOCC(=O)NCCCCCCCCCCCC(=O)O)NC(=O)[C@H](CCC(=O)O)NC(=O)[C@H](C(C)C)NC(=O)[C@H](CC3CCCCC3)NC(=O)[C@H](CCN)NC(=O)[C@@H](CC(C)C)NC(=O)[C@H](C)N(C)C(=O)[C@H](Cc3ccc(OCC(=O)O)cc3)NC(=O)[C@H](Cc3ccc(-c4ccccc4)cc3)NC(=O)[C@H](Cc3ccc(OCC(=O)O)cc3)NC2=O)c1 [Example 2667] ({CH2CO}-TYD[Phe(3-Me)]Y(Carboxymethyl)[Bip]Y(Carboxymethyl)[NMeA][dL][Dab][Cha]VEC[Dab][AEEA][12Ado]-OH; thioether N-14)
9 | 2.6 | Cc1cccc(C[C@@H]2NC(=O)[C@H](CC(=O)O)NC(=O)[C@H](Cc3ccc(OCC(=O)O)cc3)NC(=O)[C@H]([C@@H](C)O)NC(=O)CSC[C@@H](C(=O)N[C@@H](CCN)C(=O)NCCOCCOCC(=O)NCCCCCCCCCCCC(=O)O)NC(=O)[C@@H](CCC(=O)O)NC(=O)[C@H](C(C)C)NC(=O)[C@H](CC3CCCCC3)NC(=O)[C@H](CCN)NC(=O)[C@@H](CC(C)C)NC(=O)[C@H](C)N(C)C(=O)[C@H](Cc3ccc(OCC(=O)O)cc3)NC(=O)[C@H](Cc3ccc(-c4ccccc4)cc3)NC(=O)[C@H](Cc3ccc(OCC(=O)O)cc3)NC2=O)c1 [Example 2668] ({CH2CO}-TY(Carboxymethyl)D[Phe(3-Me)]Y(Carboxymethyl)[Bip]Y(Carboxymethyl)[NMeA][dL][Dab][Cha]V[dE]C[Dab][AEEA][12Ado]-OH; thioether N-14)
10 | 2.4 | Cc1cccc(C[C@@H]2NC(=O)[C@H](CC(=O)O)NC(=O)[C@H](Cc3ccc(OCC(=O)O)cc3)NC(=O)[C@H]([C@@H](C)O)NC(=O)CSC[C@@H](C(=O)N[C@@H](CCN)C(=O)NCCOCCOCC(=O)NCCCCCCCCCCCC(=O)O)NC(=O)[C@H](C)NC(=O)[C@H](C(C)C)NC(=O)[C@H](CC3CCCCC3)NC(=O)[C@H](CCN)NC(=O)[C@@H](CC(C)C)NC(=O)[C@H](C)N(C)C(=O)[C@H](Cc3ccc(OCC(=O)O)cc3)NC(=O)[C@H](Cc3ccc(-c4ccccc4)cc3)NC(=O)[C@H](Cc3ccc(OCC(=O)O)cc3)NC2=O)c1 [Example 2669] ({CH2CO}-TY(Carboxymethyl)D[Phe(3-Me)]Y(Carboxymethyl)[Bip]Y(Carboxymethyl)[NMeA][dL][Dab][Cha]VAC[Dab][AEEA][12Ado]-OH; thioether N-14)
11 | 6.6 | Cc1cccc(C[C@@H]2NC(=O)[C@H](CC(=O)O)NC(=O)[C@H](Cc3ccc(OCC(=O)O)cc3)NC(=O)[C@H]([C@@H](C)O)NC(=O)CSC[C@@H](C(=O)N[C@@H](CCN)C(=O)NCCOCCOCC(=O)NCCCCCCCCCCCC(=O)O)NC(=O)[C@@H](C)NC(=O)[C@H](C(C)C)NC(=O)[C@H](CC3CCCCC3)NC(=O)[C@H](CCN)NC(=O)[C@@H](CC(C)C)NC(=O)[C@H](C)N(C)C(=O)[C@H](Cc3ccc(OCC(=O)O)cc3)NC(=O)[C@H](Cc3ccc(-c4ccccc4)cc3)NC(=O)[C@H](Cc3ccc(OCC(=O)O)cc3)NC2=O)c1 [Example 2670] ({CH2CO}-TY(Carboxymethyl)D[Phe(3-Me)]Y(Carboxymethyl)[Bip]Y(Carboxymethyl)[NMeA][dL][Dab][Cha]V[dA]C[Dab][AEEA][12Ado]-OH; thioether N-14)
